Measured values reported in publication PMC11555673, “Modulators of the Hop-HSP90 Protein–Protein Interaction Disrupt KSHV Lytic Replication” (ACS Infectious Diseases, 2024).
Where no end group is shown, it is not given here. [ ]: non-standard residue; d: D form. SulfoLink = iodoacetyl-modified agarose resin; Mpa = O=C(O)CCS

How the values were obtained:
Hop = assay: Pulldown from HeLa cell lysates with resin-supported peptides, Western blot for Hop; type: binding; conditions: incubated overnight with resin-supported peptide, densitometry
HSP90 = assay: Pulldown from HeLa cell lysates with resin-supported peptides, Western blot for HSP90; type: binding; conditions: full-length Hop IP experiments
HopTPR2A–HSP90CTD PPI = assay: ELISA-based solid-phase HopTPR2A–HSP90CTD PPI inhibitory assay; type: biochemical; conditions: SAR, Figures 2 and 3; peptide 1 as control
CDK4 = assay: Western blot of HSP90 client CDK4 in reactivated TREx-BCBL-1-RTA cells; type: cell-based; conditions: Figures 7C and S4
Procedure: The remaining TREx-BCBL-1-RTA cells (after cell viability assay) were harvested and washed twice with ice-cold PBS (pH 7.4). […] Bicinchoninic acid (BCA) protein quantification assay was used to determine the concentration of protein in the lysates. An equal amount of protein samples was denatured in Laemmli SDS loading buffer at 95 °C for 5 min. An equal volume of the denatured protein samples was resolved by SDS-PAGE and transferred to nitrocellulose membranes using the complete Bio-Rad Trans-Blot Turbo Transfer System (Bio-Rad, California). […] The membranes were incubated in an appropriate primary antibody. The primary antibodies used in this study were mouse anti-ORF57 (207.6) monoclonal antibody (Santa Cruz Biotechnology, sc-135746), mouse […]) monoclonal antibody (Novus Biologicals, NB200-167SS), rabbit anti-Hop monoclonal antibody (Abcam, ab126724), mouse anti-Hsp90α/β (F-8) monoclonal antibody (Santa Cruz, sc-13119), anti-CDK4 antibody [EPR4513-32-7] (Abcam, Ab108357), rabbit anti-β-actin [EPR2124] monoclonal antibody (Abcam, Ab213262), and HRP-conjugated anti-GAPDH antibody (EPR6256) (Abcam, ab185059). The membranes were washed three times using TBST and incubated in an appropriate secondary antibody. […]

[1] = test system: KSHV-infected TREx-BCBL-1-RTA cells
KSHV vIRF3 = type: cell-based

IP-5: weakly active peptide 5 immobilized on SulfoLink resin, control (SulfoLink-[Mpa]MEDVE)
Hop in elution after pulldown (Hop): only trace amounts of Hop
HSP90 in elution after pulldown (HSP90): not observed

LWWPD [Peptide 12]
HopTPR2A–HSP90CTD PPI disruption activity (in words) (HopTPR2A–HSP90CTD PPI): weak to moderate activity

CPP-MAAVD (disulfide) [CPP-19, MAAVD containing control tethered to the Arg-8 CPP via disulfide linkage]
ORF57 expression, dose-dependent analysis (KSHV ORF57): no effect on either
Levels of HSP90 client CDK4 (CDK4): same effect was not seen
Cytotoxicity [1]: negligible cytotoxicity
vIRF3 expression, dose-dependent analysis (KSHV vIRF3): no effect on either
